Experimental data as given in patent US11446287B2, “Compounds and methods for EP300 or CBP modulation and indications therefor” (Opna Immuno-Oncology SA, priority 2019, dated 2022).
pIC50: −log10 of the molar value.

What follows are compounds tested against T1, Recombinant human EP300 containing the bromodomain (EP300-BD (1040-1161)) (Homo sapiens, UniProt Q09472) (assay: EP300 Alphascreen binding assay).
T1 construct: Recombinant human EP300 bromodomain (EP300-BD (1040-1161)); made in house; host or cells: E. coli BL21-CodonPlus (DE3), modified pET vector
T1 sequence (Q09472 1040-1161): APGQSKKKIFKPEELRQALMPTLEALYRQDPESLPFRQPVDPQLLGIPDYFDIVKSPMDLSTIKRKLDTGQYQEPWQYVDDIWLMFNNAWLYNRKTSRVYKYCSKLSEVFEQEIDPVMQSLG
Summary of the method: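 Displacement of a biotinylated acetyl-K56 histone H3 peptide from the N-His bromodomain construct (1040-1161) measured by AlphaScreen proximity, beads at 7.5 μg/ml final, read 60 min after addition. Protein, peptide and compound first incubated 1 h at room temperature, pH 7.5 HEPES buffer; IC50 by four-parameter logistic fit.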
For `Cc1noc(C)c1-c1cnc2c(c1)c(-c1cnn(C(C)(C)C(=O)O)c1)cn2C(c1ccccn1)C1CCCC1` (stereo not shown) [P-0035, 2-(4-(1-(cyclopentyl(pyridin-2-yl)methyl)-5-(3,5-dimethylisoxazol-4-yl)-1H-pyrrolo[2,3-b]pyridin-3-yl)-1H-pyrazol-1-yl)-2-methylpropanoic acid], the pIC50 was 6.00 to 10.00.
In the case of `Cc1noc(C)c1-c1cnc2c(c1)c(-c1cnn(CC(=O)O)c1)cn2C(c1ccccn1)C1CCCC1` (stereo not shown) [P-0036, 2-(4-(1-(cyclopentyl(pyridin-2-yl)methyl)-5-(3,5-dimethylisoxazol-4-yl)-1H-pyrrolo[2,3-b]pyridin-3-yl)-1H-pyrazol-1-yl)acetic acid], the pIC50 was 6.00 to 10.00.
`Cc1noc(C)c1-c1cnc2c(c1)c(-c1cnn(CC(C)(C)O)c1)cn2C(c1ccccn1)C1CCCC1` (stereo not shown) [P-0037, 1-(4-(1-(cyclopentyl(pyridin-2-yl)methyl)-5-(3,5-dimethylisoxazol-4-yl)-1H-pyrrolo[2,3-b]pyridin-3-yl)-1H-pyrazol-1-yl)-2-methylpropan-2-ol] showed a pIC50 of 5.10 to 6.00.
Compound `Cc1noc(C)c1-c1cnc2c(c1)c(-c1ccc(C(=O)O)c(Cl)c1)cn2C(c1ccccn1)C1CCCC1` (stereo not shown) [P-0038, 2-chloro-4-(1-(cyclopentyl(pyridin-2-yl)methyl)-5-(3,5-dimethylisoxazol-4-yl)-1H-pyrrolo[2,3-b]pyridin-3-yl)benzoic acid] has a pIC50 of 6.00 to 10.00.
Work on `COC(=O)c1cc(-c2cn(C(c3ccccn3)C3CCCC3)c3ncc(-c4c(C)noc4C)cc23)ccn1` (stereo not shown) [P-0040, methyl 4-(1-(cyclopentyl(pyridin-2-yl)methyl)-5-(3,5-dimethylisoxazol-4-yl)-1H-pyrrolo[2,3-b]pyridin-3-yl)picolinate] yielded a pIC50 of 6.00 to 10.00.
Compound `Cc1noc(C)c1-c1cnc2c(c1)c(-c1ccnc(C(=O)O)c1)cn2C(C1CC1)C1CC1` [P-0041, 4-(1-(dicyclopropylmethyl)-5-(3,5-dimethylisoxazol-4-yl)-1H-pyrrolo[2,3-b]pyridin-3-yl)picolinic acid] has a pIC50 of 6.00 to 10.00.
Work on `Cc1noc(C)c1-c1cnc2c(c1)c(-c1ccnc(C(=O)O)c1)cn2Cc1ccccc1` [P-0042, 4-(1-benzyl-5-(3,5-dimethylisoxazol-4-yl)-1H-pyrrolo[2,3-b]pyridin-3-yl)picolinic acid] yielded a pIC50 of 6.00 to 10.00.
For `Cc1noc(C)c1-c1cnc2c(c1)c(-c1ccnc(C(=O)O)c1)cn2C(c1ccccn1)C1CCC1` (stereo not shown) [P-0043, 4-(1-(cyclobutyl(pyridin-2-yl)methyl)-5-(3,5-dimethylisoxazol-4-yl)-1H-pyrrolo[2,3-b]pyridin-3-yl)picolinic acid], the pIC50 was 6.00 to 10.00.
Work on `Cc1noc(C)c1-c1cnc2c(c1)c(-c1ccnc(C(=O)O)c1)cn2Cc1ccccn1` [P-0044, 4-(5-(3,5-dimethylisoxazol-4-yl)-1-(pyridin-2-ylmethyl)-1H-pyrrolo[2,3-b]pyridin-3-yl)picolinic acid] yielded a pIC50 of 6.00 to 10.00.
`Cc1noc(C)c1-c1cnc2c(c1)c(-c1ccnc(C(=O)O)c1)cn2CC1CC1` [P-0045, 4-(1-(cyclopropylmethyl)-5-(3,5-dimethylisoxazol-4-yl)-1H-pyrrolo[2,3-b]pyridin-3-yl)picolinic acid] showed a pIC50 of 6.00 to 10.00.
`COC(=O)c1cc(-c2cn(C(c3ccccn3)C3CCC3)c3ncc(-c4c(C)noc4C)cc23)ccn1` (stereo not shown) [P-0046, methyl 4-(1-(cyclobutyl(pyridin-2-yl)methyl)-5-(3,5-dimethylisoxazol-4-yl)-1H-pyrrolo[2,3-b]pyridin-3-yl)picolinate] showed a pIC50 of 6.00 to 10.00.
`COc1cc(C(=O)O)ccc1-c1cn([C@@H](C)c2ccccn2)c2ncc(-c3c(C)noc3C)cc12` [P-0047, (S)-4-(5-(3,5-dimethylisoxazol-4-yl)-1-(1-(pyridin-2-yl)ethyl)-1H-pyrrolo[2,3-b]pyridin-3-yl)-3-methoxybenzoic acid] gave a pIC50 of 6.00 to 10.00.
With `Cc1noc(C)c1-c1cnc2c(c1)c(-c1cccc(C(=O)O)c1)cn2Cc1ccccc1` [P-0048, 3-(1-benzyl-5-(3,5-dimethylisoxazol-4-yl)-1H-pyrrolo[2,3-b]pyridin-3-yl)benzoic acid] the pIC50 was 6.00 to 10.00.
Work on `Cc1noc(C)c1-c1cnc2c(c1)c(-c1cccc(C(=O)O)c1)cn2Cc1ccccn1` [P-0049, 3-(5-(3,5-dimethylisoxazol-4-yl)-1-(pyridin-2-ylmethyl)-1H-pyrrolo[2,3-b]pyridin-3-yl)benzoic acid] yielded a pIC50 of 6.00 to 10.00.
For `Cc1noc(C)c1-c1cnc2c(c1)c(-c1cccc(C(=O)O)c1)cn2CC1CC1` [P-0050, 3-(1-(cyclopropylmethyl)-5-(3,5-dimethylisoxazol-4-yl)-1H-pyrrolo[2,3-b]pyridin-3-yl)benzoic acid], the pIC50 was 6.00 to 10.00.
In the case of `Cc1noc(C)c1-c1cnc2c(c1)c(C#CC(C)(C)C(=O)O)cn2Cc1ccccc1` [P-0051, 4-(1-benzyl-5-(3,5-dimethylisoxazol-4-yl)-1H-pyrrolo[2,3-b]pyridin-3-yl)-2,2-dimethylbut-3-ynoic acid], the pIC50 was 6.00 to 10.00.
With `COC(=O)c1cc(-n2cc(Cc3ccccc3)c3ncc(-c4c(C)noc4C)cc32)ccn1` [P-0052, methyl 4-(3-benzyl-6-(3,5-dimethylisoxazol-4-yl)-1H-pyrrolo[3,2-b]pyridin-1-yl)picolinate] the pIC50 was 6.00 to 10.00.
In the case of `Cc1noc(C)c1-c1cnc2c(Cc3ccccc3)cn(-c3ccnc(C(=O)O)c3)c2c1` [P-0053, 4-(3-benzyl-6-(3,5-dimethylisoxazol-4-yl)-1H-pyrrolo[3,2-b]pyridin-1-yl)picolinic acid], the pIC50 was 6.00 to 10.00.
`Cc1noc(C)c1-c1cnc2c(C(=O)c3ccccc3)cn(-c3ccnc(C(=O)O)c3)c2c1` [P-0054, 4-(3-benzoyl-6-(3,5-dimethylisoxazol-4-yl)-1H-pyrrolo[3,2-b]pyridin-1-yl)picolinic acid] gave a pIC50 of 6.00 to 10.00.
`Cc1noc(C)c1-c1cnc2c(c1)c(-c1ccc(C(=O)O)cc1OC(F)(F)F)cn2-c1ccc(C2CC2)nc1` [P-0388, 4-(1-(6-cyclopropylpyridin-3-yl)-5-(3,5-dimethylisoxazol-4-yl)-1H-pyrrolo[2,3-b]pyridin-3-yl)-3-(trifluoromethoxy)benzoic acid] was tested, and the pIC50 was 6.00 to 10.00.
`Cc1noc(C)c1-c1cnc2c(c1)c(-c1ccc(C(=O)O)cc1OC(F)(F)F)cn2C1CCC(C#N)C1` (stereo not shown) [P-0389, 4-(1-(3-cyanocyclopentyl)-5-(3,5-dimethylisoxazol-4-yl)-1H-pyrrolo[2,3-b]pyridin-3-yl)-3-(trifluoromethoxy)benzoic acid] was tested, and the pIC50 was 6.00 to 10.00.
Compound `Cc1noc(C)c1-c1cnc2c(c1)c(-c1c(Cl)cc(C(=O)O)cc1OCC(F)F)cn2-c1cnc(C2CC2)nc1` [P-0390, 3-chloro-4-(1-(2-cyclopropylpyrimidin-5-yl)-5-(3,5-dimethylisoxazol-4-yl)-1H-pyrrolo[2,3-b]pyridin-3-yl)-5-(2,2-difluoroethoxy)benzoic acid] has a pIC50 of 6.00 to 10.00.
Work on `Cc1noc(C)c1-c1cnc2c(c1)c(-c1c(Cl)cc(C(=O)O)cc1OC1CCC1)cn2-c1cnc(C2CC2)nc1` [P-0391, 3-chloro-5-cyclobutoxy-4-(1-(2-cyclopropylpyrimidin-5-yl)-5-(3,5-dimethylisoxazol-4-yl)-1H-pyrrolo[2,3-b]pyridin-3-yl)benzoic acid] yielded a pIC50 of 6.00 to 10.00.
For `COc1ncc(-n2cc(-c3ccc(C(=O)O)cc3OC(F)(F)F)c3cc(-c4c(C)noc4C)cnc32)cn1` [P-0392, 4-(5-(3,5-dimethylisoxazol-4-yl)-1-(2-methoxypyrimidin-5-yl)-1H-pyrrolo[2,3-b]pyridin-3-yl)-3-(trifluoromethoxy)benzoic acid], the pIC50 was 6.00 to 10.00.
With `Cc1noc(C)c1-c1cnc2c(c1)c(-c1c(Cl)cc(C(=O)O)cc1OC(C)C)cn2-c1cnc(C2CC2)nc1` [P-0393, 3-chloro-4-(1-(2-cyclopropylpyrimidin-5-yl)-5-(3,5-dimethylisoxazol-4-yl)-1H-pyrrolo[2,3-b]pyridin-3-yl)-5-isopropoxybenzoic acid] the pIC50 was 6.00 to 10.00.
`Cc1noc(C)c1-c1cnc2c(c1)c(-c1c(F)cc(C(=O)O)cc1OC1CC1)cn2C(C1CC1)C1CC1` [P-0394, 3-cyclopropoxy-4-(1-(dicyclopropylmethyl)-5-(3,5-dimethylisoxazol-4-yl)-1H-pyrrolo[2,3-b]pyridin-3-yl)-5-fluorobenzoic acid] showed a pIC50 of 6.00 to 10.00.
Work on `Cc1noc(C)c1-c1cnc2c(c1)c(-c1c(Cl)cc(C(=O)O)cc1OC(F)(F)F)cn2-c1ncccc1C#N` [P-0395, 3-chloro-4-(1-(3-cyanopyridin-2-yl)-5-(3,5-dimethylisoxazol-4-yl)-1H-pyrrolo[2,3-b]pyridin-3-yl)-5-(trifluoromethoxy)benzoic acid] yielded a pIC50 of 6.00 to 10.00.
Compound `Cc1noc(C)c1-c1cnc2c(c1)c(-c1c(Cl)cc(C(=O)O)cc1OC1CCC1)cn2-c1ncccc1C#N` [P-0396, 3-chloro-4-(1-(3-cyanopyridin-2-yl)-5-(3,5-dimethylisoxazol-4-yl)-1H-pyrrolo[2,3-b]pyridin-3-yl)-5-cyclobutoxybenzoic acid] has a pIC50 of 6.00 to 10.00.
For `Cc1noc(C)c1-c1cnc2c(c1)c(-c1c(F)cc(C(=O)O)cc1OC1CC1)cn2C1CCOCC1` [P-0397, 3-cyclopropoxy-4-(5-(3,5-dimethylisoxazol-4-yl)-1-(tetrahydro-2H-pyran-4-yl)-1H-pyrrolo[2,3-b]pyridin-3-yl)-5-fluorobenzoic acid], the pIC50 was 6.00 to 10.00.
`CCOc1nc(C(=O)O)c(Cl)cc1-c1cn(C2CCOCC2)c2ncc(-c3c(C)noc3C)cc12` [P-0398, 3-chloro-5-(5-(3,5-dimethylisoxazol-4-yl)-1-(tetrahydro-2H-pyran-4-yl)-1H-pyrrolo[2,3-b]pyridin-3-yl)-6-ethoxypicolinic acid] was tested, and the pIC50 was 6.00 to 10.00.
Compound `Cc1noc(C)c1-c1cnc2c(c1)c(-c1ccc(C(=O)O)cc1OC(F)(F)F)cn2-c1ccc(=O)n(C)c1` [P-0399, 4-(5-(3,5-dimethylisoxazol-4-yl)-1-(1-methyl-6-oxo-1,6-dihydropyridin-3-yl)-1H-pyrrolo[2,3-b]pyridin-3-yl)-3-(trifluoromethoxy)benzoic acid] has a pIC50 of 6.00 to 10.00.
